From patent publication US4077981A, “Certain 1-alkyl-2-dichlorophenyliminopyrrolidines” (Bayer Aktiengesellschaft, priority 1968, dated 1978)
Where two headings read alike, the source gives them in different places.

Assays:
[1] = system: Boophilus microplus, Biarra strain (resistant); test: In-vitro test for ovicidal effect on ticks (Biarra strain); conditions: for Ovicidal effect: 50% inhibition with the stated concentration of active compound: Table 4, concentration giving 50% inhibition; for Ovicidal effect: >50% inhibition with the stated concentration of active compound: concentration giving >50% inhibition
Experimental: (§1) In-vitro Test for Ovicidal Effect on Ticks
The emulsion concentrate so obtained is diluted with water to the application concentration desired in each case.
After immersion of, in each case, 10 female specimens of the various strains of ticks, the individual ticks are transferred to plastic dishes, the bottom of each of which is covered with a disc of filter paper.

[2] = system: Boophilus, Biarra strain; test: In-vitro test for adulticidal effect on ticks (24 hours); set-up: species or system Boophilus microplus; conditions: Table 4, after 24 hours, at the concentrations stated
Experimental: In addition, the adulticidal effectiveness of the preparation of the given active compound after 24 hours is determined by ascertaining the voluntary movement of limbs and bodies of the immersed adult ticks after stimulation with a fine needle compared with the voluntary movement of limbs and bodies of the untreated adult ticks. The effectiveness is stated in %, 100% meaning that no movements of any kind of the limbs and bodies were any longer detectable, and 0% signifying that the ticks moved limbs and bodies in normal manner.

[3] = system: Boophilus microplus, Biarra strain; test: In-vivo test against ticks on cattle; set-up: species or system Boophilus microplus (on cattle); conditions: for Total number of female adult ticks which reach development on the cattle: total 1-21 days
Experimental: In-vivo test against ticks on cattle
3 parts of the particular active compound are mixed with 7 parts of a mixture of equal parts by weight of ethyleneglycol monomethyl ether and nonylphenyl polyglycol ether. The emulsion concentrate so obtained is diluted with water to the application concentration desired in each case.
Cattle which have been infected (12 times at intervals of 2 days) with resistant larvae of ticks of the species Boophilus microplus, Biarra strain, are sprayed on the 24th day after the first infection with the preparation of the given active compound so obtained.
The effect of the preparation of the given active compound is determined by ascertaining the number of adult female ticks which have reached development on the treated cattle and later lay viable eggs. This number is compared with the number of adult femal ticks which have reached development on untreated cattle.
As a measure of the intensity of the infestation before treatment, there is used the number of adult females which reach development in the case of the treated and untreated animals in the last three days before the time of treatment.

[4] = system: Boophilus microplus, Ridgeland strain (resistant); test: In-vitro test for ovicidal effect on ticks (Ridgeland strain); conditions: for Ovicidal effect: 100% inhibition with the stated concentration of active compound / Ovicidal effect: >50% inhibition with the stated concentration of active compound: Table 1b, * Ridgeland strain; for Ovicidal effect: 100% inhibition with the stated concentration of active compound: concentration giving 100% inhibition; for Ovicidal effect: >50% inhibition with the stated concentration of active compound: concentration giving >50% inhibition
Experimental: as §1
(§2) 3 g of the particular active compound are mixed with 7 g of a mixture of equal parts by weight of ethyleneglycol monomethyl ether and nonylphenyl polyglycol ether. The emulsion concentrate so obtained is diluted with water to the application concentration desired in each case.
(§3) Adult, fully engorged female ticks of the species Boophilus microplus (resistant) are immersed for 1 minute in this preparation of the given active compound. After immersion of, in each case, 10 female specimens of the various strains of ticks, the individual ticks are transferred to plastic dishes, the bottom of each of which is covered with a disc of filter paper. As a control, similar ticks of a normally sensitive strain are treated in exactly the same manner.
(§4) After 35 days, the effectiveness of the preparation of the given active compound is determined by ascertaining the inhibition of the depositing of fertile eggs compared with the egg depositing of untreated control ticks. The effect is stated in %, 100% meaning that fertile eggs ceased to be deposited, and 0% signifying that the ticks have deposited eggs in normal manner like the untreated control ticks.

[5] = Toxicity on the mouse; conditions: in vivo, read-out: Toxicity (highest survived dose)
Experimental: The toxicity determined on the mouse is: orally, 500 mg/kg; subcutaneously,500 mg/kg (highest survived doses).

[6] = system: Boophilus microplus, normally sensitive strain; test: In-vitro test for ovicidal effect on ticks (normally sensitive strain); conditions: Rhipicephalus microplus, 840 h, after 35 days, read-out: Inhibition of egg depositing
Experimental: as §1, §2, §3, §4

[7] = ovicidal only (marked not adulticidal)
[8] = Table 4, concentration giving 100% inhibition, ovicidal only (marked not adulticidal)
[9] = Table 1b, concentration giving 100% inhibition
[10] = 0.3%, days after treatment +1+2+3
[11] = 0.3%, days after treatment +4+5+6
[12] = 0.3%, days after treatment +7+8+9
[13] = 0.3%, days after treatment +10+11+12
[14] = 0.3%, days after treatment +13+14+15
[15] = 0.3%, days after treatment +16+17+18
[16] = 0.3%, days after treatment +19+20+21
[17] = 0.3%, days before treatment -2 -1 0 (baseline)

## C=CCN1CCCC1=Nc1cc(Cl)ccc1Cl
[1]; [7]
  Ovicidal effect: 50% inhibition with the stated concentration of active compound: 0.03 % by weight
[1]; [8]
  Ovicidal effect: 100% inhibition with the stated concentration of active compound: 0.1 % by weight
[2]
  Adulticidal effect: not adulticidal

## C=CCN1CCCC1=Nc1cccc(Cl)c1Cl
[1]; [7]
  Ovicidal effect: 50% inhibition with the stated concentration of active compound: 0.008 % by weight
[1]; [8]
  Ovicidal effect: 100% inhibition with the stated concentration of active compound: 0.01 % by weight
[2]
  Adulticidal effect: not adulticidal

## CCCCN1CCCC1=Nc1ccc(F)cc1Cl
[1]; [7]
  Ovicidal effect: 50% inhibition with the stated concentration of active compound: 0.01 % by weight
[1]; [8]
  Ovicidal effect: 100% inhibition with the stated concentration of active compound: 0.03 % by weight
[2]
  Adulticidal effect: not adulticidal

## C=CCN1CCCC1=Nc1ccc(F)cc1Cl
[1]; [7]
  Ovicidal effect: 50% inhibition with the stated concentration of active compound: 0.03 % by weight
[1]; [8]
  Ovicidal effect: 100% inhibition with the stated concentration of active compound: 0.1 % by weight
[2]
  Adulticidal effect: not adulticidal

## CCCN1CCCC1=Nc1ccc(F)cc1Cl
[1]; [7]
  Ovicidal effect: 50% inhibition with the stated concentration of active compound: 0.03 % by weight
[1]; [8]
  Ovicidal effect: 100% inhibition with the stated concentration of active compound: 0.1 % by weight
[2]
  Adulticidal effect: not adulticidal

## C=CCN1CCCC1=Nc1cc(Cl)c(Cl)cc1Cl
[1]; [7]
  Ovicidal effect: 50% inhibition with the stated concentration of active compound: 0.02 % by weight
[1]; [8]
  Ovicidal effect: 100% inhibition with the stated concentration of active compound: 0.03 % by weight
[2]
  Adulticidal effect: not adulticidal

## CC=CCN1CCCC1=Nc1ccc(Cl)cc1Cl
[1]; [7]
  Ovicidal effect: 50% inhibition with the stated concentration of active compound: 0.03 % by weight
[1]; [8]
  Ovicidal effect: 100% inhibition with the stated concentration of active compound: 0.01 % by weight
[2]
  Adulticidal effect: not adulticidal

## CC=CCN1CCCC1=Nc1ccc(Br)cc1CC
[1]; [7]
  Ovicidal effect: 50% inhibition with the stated concentration of active compound: 0.05 % by weight
[1]; [8]
  Ovicidal effect: 100% inhibition with the stated concentration of active compound: 0.1 % by weight
[2]
  Adulticidal effect: not adulticidal

## C=CCN1CCCC1=Nc1ccc(Cl)cc1C
[1]; [7]
  Ovicidal effect: 50% inhibition with the stated concentration of active compound: 0.02 % by weight
[1]; [8]
  Ovicidal effect: 100% inhibition with the stated concentration of active compound: 0.03 % by weight
[2]
  Adulticidal effect: not adulticidal

## C=CCN1CCCC1=Nc1ccc(Cl)c(Cl)c1 [Compound 41]
[1]; [9]
  Ovicidal effect: 100% inhibition with the stated concentration of active compound: 0.03 % by weight
[1]; Table 1b
  Ovicidal effect: >50% inhibition with the stated concentration of active compound: 0.01 % by weight
[3]; [10]
  Number of female adult ticks which reach development on the cattle: 0
[3]; [11]
  Number of female adult ticks which reach development on the cattle: 0
[3]; [12]
  Number of female adult ticks which reach development on the cattle: 7
[3]; [13]
  Number of female adult ticks which reach development on the cattle: 6
[3]; [14]
  Number of female adult ticks which reach development on the cattle: 4
[3]; [15]
  Number of female adult ticks which reach development on the cattle: 0
[3]; [16]
  Number of female adult ticks which reach development on the cattle: 0
[3]; [17]
  Number of female adult ticks which reach development on the cattle: 262
[3]; 0.3%
  Total number of female adult ticks which reach development on the cattle: 17

## CCCCN1CCCC1=Nc1ccc(Cl)c(Cl)c1 [Compound 71]
[1]; [9]
  Ovicidal effect: 100% inhibition with the stated concentration of active compound: 0.03 % by weight
[1]; Table 1b
  Ovicidal effect: >50% inhibition with the stated concentration of active compound: 0.01 % by weight
[3]; [10]
  Number of female adult ticks which reach development on the cattle: 3
[3]; [11]
  Number of female adult ticks which reach development on the cattle: 1
[3]; [12]
  Number of female adult ticks which reach development on the cattle: 0
[3]; [13]
  Number of female adult ticks which reach development on the cattle: 11
[3]; [14]
  Number of female adult ticks which reach development on the cattle: 1
[3]; [15]
  Number of female adult ticks which reach development on the cattle: 2
[3]; [16]
  Number of female adult ticks which reach development on the cattle: 0
[3]; [17]
  Number of female adult ticks which reach development on the cattle: 231
[3]; 0.3%
  Total number of female adult ticks which reach development on the cattle: 18

## CCCN1CCCC1=Nc1ccc(Cl)cc1C [Compound 211]
[4]
  Ovicidal effect: 100% inhibition with the stated concentration of active compound: 0.1 % by weight
  Ovicidal effect: >50% inhibition with the stated concentration of active compound: 0.03 % by weight

## Cc1cc(Cl)ccc1N=C1CCCN1C(C)C [Compound 241]
[4]
  Ovicidal effect: 100% inhibition with the stated concentration of active compound: 1.0 % by weight
  Ovicidal effect: >50% inhibition with the stated concentration of active compound: 0.3 % by weight

## C=CCN1CCCC1=Nc1ccc(Cl)cc1Cl [Example 6, 1-(α-allyl)-2-(2',4'-dichloro-phenylimino)-pyrrolidine]
[5]; po, orally
  MTD: 500 mg/kg
[5]; sc, subcutaneously
  MTD: 500 mg/kg

## CN1CCCC1=Nc1ccc(Cl)cc1Cl [l1, 1-methyl-2-(2',4'-dichloro-phenylimino)-pyrrolidine]
[1]; Rhipicephalus microplus, 840 h, 0.01% active compound, resistant, after 35 days, read-out: Inhibition of egg depositing
  inhibition at 0.01 % strength: 0%
[1]; Rhipicephalus microplus, 840 h, 0.03% active compound, resistant, after 35 days, read-out: Inhibition of egg depositing
  inhibition at 0.03 % strength: > 50%
[1]; Rhipicephalus microplus, 840 h, 0.1% active compound, resistant, after 35 days, read-out: Inhibition of egg depositing
  inhibition at 0.1 % strength: 100%
[1]; Rhipicephalus microplus, 840 h, 0.3% active compound, resistant, after 35 days, read-out: Inhibition of egg depositing
  inhibition at 0.3 % strength: 100%
[1]; Rhipicephalus microplus, 840 h, 1.0% active compound, resistant, after 35 days, read-out: Inhibition of egg depositing
  inhibition at 1 % strength: 100%
[3]; [11]
  Number of female adult ticks which reach development on the cattle: 1
[3]; [12]
  Number of female adult ticks which reach development on the cattle: 119
[3]; 0.4%, days after treatment +7+8+9
  Number of female adult ticks which reach development on the cattle: 72
[3]; 0.5%, days after treatment +7+8+9
  Number of female adult ticks which reach development on the cattle: 1
[3]; 0.5%, days after treatment +10+11+12
  Number of female adult ticks which reach development on the cattle: 7
[3]; 0.5%, days after treatment +13+14+15
  Number of female adult ticks which reach development on the cattle: 3
[3]; 0.5%, days after treatment +16+17+18
  Number of female adult ticks which reach development on the cattle: 1
[3]; 0.5%
  Total number of female adult ticks which reach development on the cattle: 12
[4]; Rhipicephalus microplus, 840 h, 0.01% active compound, Ridgeland strain, resistant, after 35 days, read-out: Inhibition of egg depositing
  inhibition at 0.01 % strength: 0%
[4]; Rhipicephalus microplus, 840 h, 0.03% active compound, Ridgeland strain, resistant, after 35 days, read-out: Inhibition of egg depositing
  inhibition at 0.03 % strength: > 50%
[4]; Rhipicephalus microplus, 840 h, 0.1% active compound, Ridgeland strain, resistant, after 35 days, read-out: Inhibition of egg depositing
  inhibition at 0.1 % strength: 100%
[4]; Rhipicephalus microplus, 840 h, 0.3% active compound, Ridgeland strain, resistant, after 35 days, read-out: Inhibition of egg depositing
  inhibition at 0.3 % strength: 100%
[4]; Rhipicephalus microplus, 840 h, 1.0% active compound, Ridgeland strain, resistant, after 35 days, read-out: Inhibition of egg depositing
  inhibition at 1 % strength: 100%
[6]; 0.01% active compound
  inhibition at 0.01 % strength: 0%
[6]; 0.03% active compound
  inhibition at 0.03 % strength: > 50%
[6]; 0.1% active compound
  inhibition at 0.1 % strength: 100%
[6]; 0.3% active compound
  inhibition at 0.3 % strength: 100%
[6]; 1.0% active compound
  inhibition at 1 % strength: 100%
